Results taken from ChEMBL document CHEMBL5344431 (J Med Chem, 2024).
The source made the active and inactive calls. The rule behind the calls is not given here.

target: T1, Histone deacetylase 8 (Homo sapiens, UniProt Q9BY41); experiment: Inhibition of HDAC8 (unknown origin) using Boc-Lys(TFA)-AMC as substrate preincubated for 1 hr followed by substrate addition and measured after 15 mins by fluorescence based method; conditions: not given
T1 sequence (Q9BY41 whole entry): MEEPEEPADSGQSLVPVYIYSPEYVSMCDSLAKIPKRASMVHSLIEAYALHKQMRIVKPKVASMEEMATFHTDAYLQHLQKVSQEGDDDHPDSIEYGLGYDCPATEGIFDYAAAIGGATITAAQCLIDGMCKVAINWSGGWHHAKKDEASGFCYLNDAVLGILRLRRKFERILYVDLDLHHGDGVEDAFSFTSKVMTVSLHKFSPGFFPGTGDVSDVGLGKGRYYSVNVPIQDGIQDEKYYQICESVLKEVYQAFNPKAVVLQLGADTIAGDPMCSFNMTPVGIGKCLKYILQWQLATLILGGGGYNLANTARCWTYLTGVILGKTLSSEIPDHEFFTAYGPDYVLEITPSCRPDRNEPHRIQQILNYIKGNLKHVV

| SMILES | IC50 [µM] |
| --- | --- |
| Clc1cnccn1 | > 50 |
| N#Cc1cncnc1 | > 50 |
| Cn1cc[n+](C)c1C#N | 22 |
| C#Cc1ccn[nH]1 | > 50 |
| C[n+]1ccccc1Cl | > 50 |
| Brc1cn[nH]c1 | > 50 |
| N#Cc1nccs1 | > 50 |
| C[n+]1ccnc(Br)c1 | 27 |
| Brc1c[nH]cn1 | > 50 |
| C#Cc1cn[nH]c1 | > 50 |
| Ic1ccn[nH]1 | > 50 |
| N#Cc1cnccn1 | > 50 |
| C=Cc1cncnc1 | > 50 |
| Cn1cc(Br)c[n+]1C | 27 |
| C=Cc1cc[n+](C)n1C | > 50 |
| Brc1ncc[nH]1 | > 50 |
| Clc1cn[nH]c1 | > 50 |
| C[n+]1ccnc(C#N)c1 | > 50 |
| C=Cc1cccnc1 | > 50 |
| Cn1cc(I)[n+](C)c1 | 31 |
| N#Cc1ccccn1 | > 50 |
| N#Cc1ccncn1 | > 50 |

| SMILES | IC50 [µM] |
| --- | --- |
| N#Cc1cn[nH]c1 | > 50 |
| C=Cc1ccn[nH]1 | > 50 |
| C[n+]1ccsc1C#N | > 50 |
| Brc1cccnc1 | > 50 |
| Brc1ccncc1 | > 50 |
| N#Cc1cccnc1 | > 50 |
| C=Cc1cnccn1 | > 50 |
| C=Cc1ccncc1 | > 50 |
| Clc1ccncc1 | > 50 |
| Cn1cc(C#N)[n+](C)c1 | 24 |
| C#Cc1cnccn1 | > 50 |
| C[n+]1cnccc1Cl | > 50 |
| Ic1cn[nH]c1 | > 50 |
| C#Cc1cccnc1 | > 50 |
| Clc1cccnc1 | > 50 |
| Clc1ccncn1 | > 50 |
| Clc1cncnc1 | > 50 |
| Brc1nccs1 | > 50 |
| Cc1noc(C)c1I | > 50 |
| C#Cc1ccccn1 | > 50 |
| C#Cc1cc[n+](C)n1C | > 50 |
| C#Cc1cncnc1 | > 50 |

| SMILES | IC50 [µM] |
| --- | --- |
| C[n+]1ccnc(I)c1 | 27 |
| Clc1ncccn1 | > 50 |
| Brc1ccn[nH]1 | > 50 |
| C[n+]1cncc(C#N)c1 | > 50 |
| Ic1ncc[nH]1 | > 50 |
| C=Cc1ccccn1 | > 50 |
| Clc1ccccn1 [2-CHLOROPYRIDINE] | > 50 |
| N#Cc1ccncc1 [ISONICOTINONITRILE] | > 50 |
| Ic1c[nH]cn1 | > 50 |
| Brc1ncccn1 | > 50 |
| Brc1cnccn1 | > 50 |
| Ic1cncnc1 | > 50 |
| Brc1ccccn1 | > 50 |
| Ic1ncco1 | > 50 |
| Ic1cnccn1 | > 50 |
| N#Cc1c[nH]cn1 | > 50 |
| C#Cc1ncccn1 | > 50 |
| Cn1cc(C#N)c[n+]1C | > 50 |
| N#Cc1ncc[nH]1 | > 50 |
| Clc1c[nH]cn1 | > 50 |
| Brc1cncnc1 | > 50 |
| Clc1ncc[nH]1 | > 50 |

The remaining lines, values ahead:

| IC50 [µM] | SMILES |
| --- | --- |
| 21 | C#Cc1cnc[n+](C)c1 |
| 2.1 | C#Cc1cccc[n+]1C |
| 14 | C[n+]1cccc(Cl)c1 |
| 1.3 | C[n+]1ccccc1Br |
| 8.2 | C#Cc1ccc[n+](C)c1 |
| 12.6 | C#Cc1ccncc1 |
| 4.3 | C[n+]1cncc(Cl)c1 |
| 23 | Cn1c(Br)cc[n+]1C |
| 0.43 | C[n+]1cccnc1Cl |
| 1.8 | Cn1cc[n+](C)c1I |
| 0.44 | C[n+]1ccc(I)cc1 |
| 1.2 | C[n+]1ccsc1Br |
| 0.3 | C[n+]1cncc(Br)c1 |
| 9 | Cn1cc(I)c[n+]1C |
| 14 | Cn1cc(Cl)c[n+]1C |
| 5 | C=Cc1cnc[n+](C)c1 |
| 8 | C[n+]1cccc(Br)c1 |
| 0.74 | C#Cc1nccc[n+]1C |
| 3.4 | C=Cc1cc[n+](C)cc1 |
| 4.61 | Ic1ccncc1 |
| 4.7 | C[n+]1cccc(I)c1 |
| 0.42 | C=Cc1c[n+](C)ccn1 |
| 20 | Cn1cc(Br)[n+](C)c1 |
| 0.42 | C#Cc1c[n+](C)ccn1 |

| IC50 [µM] | SMILES |
| --- | --- |
| 0.33 | Cn1cc[n+](C)c1Br |
| 5 | C=Cc1ccc[n+](C)c1 |
| 2.24 | Ic1ncccn1 |
| 1.2 | C[n+]1ccoc1I |
| 16 | Cn1cc(Cl)[n+](C)c1 |
| 19 | Cn1c(I)cc[n+]1C |
| 0.22 | C[n+]1cccnc1Br |
| 0.97 | Cn1cc[n+](C)c1Cl |
| 3.1 | C[n+]1ccc(Br)cc1 |
| 0.079 | C#Cc1cc[n+](C)cc1 |
| 10 | C#Cc1cn(C)[n+](C)c1 |
| 0.13 | C[n+]1csc(Br)c1 |
| 0.12 | C[n+]1cncc(I)c1 |
| 0.152 | C[n+]1cccnc1I |
| 6.5 | C[n+]1ccc(Cl)cc1 |
| 2.3 | C[n+]1ccnc(Cl)c1 |
| 12 | C[n+]1cccc(C#N)c1 |
| 2.9 | Cc1o[n+](C)c(C)c1I |
| 5.3 | C[n+]1ccccc1C#N |
| 0.44 | C[n+]1ccccc1I |
| 3.6 | C[n+]1cnccc1C#N |
| 14 | C[n+]1ccc(C#N)cc1 |
| 5.6 | Brc1cncs1 |

target: T2, Histone deacetylase 8 (Homo sapiens) (UniProt Q9BY41); experiment: Inhibition of HDAC8 (unknown origin) at 0.0001 to 10000 uM using Boc-Lys(TFA)-AMC as substrate preincubated for 1 hr followed by substrate addition and measured after 15 mins by fluorescence based method; conditions: dose 0.0001-10000 µM, time 75.0 min
T2 sequence (whole entry): T1 sequence (Q9BY41 whole entry)

| inhibition | SMILES |
| --- | --- |
| inactive | C#Cc1c[n+](C)ccc1NC(=O)CCC(=O)N1Cc2ccccc2C1 |
| inactive | C#Cc1c[n+](C)ccc1NC(=O)N1Cc2ccccc2C1 |

target: T2, Histone deacetylase 8 (Homo sapiens); experiment: Inhibition of HDAC8 in human OCI-AML3 cells assessed as increase in SMC3 acetylation at 10 uM incubated for 72 hrs by Western blotting analysis; type: cell-based; conditions: OCI-AML-3

| inhibition | SMILES |
| --- | --- |
| Active | C#Cc1c[n+](C)ccc1NC(=O)CC(=O)N1Cc2ccccc2C1 |

target: T2, Histone deacetylase 8 (Homo sapiens); experiment: Inhibition of HDAC8 (unknown origin) upto 100 uM using Boc-Lys(TFA)-AMC as substrate preincubated for 1 hr followed by substrate addition and measured after 15 mins by fluorescence based method; conditions: time 75.0 min

| inhibition | SMILES |
| --- | --- |
| inactive | C#Cc1cnccc1NC(=O)CC(=O)N1Cc2ccccc2C1 |
| inactive | C#Cc1c[n+](C)ccc1NC(=O)CCC(=O)N1Cc2ccccc2C1 |
| inactive | C#Cc1cnccc1NC(=O)CCC(=O)N1Cc2ccccc2C1 |
| inactive | C#Cc1cnccc1NC(=O)N1Cc2ccccc2C1 |

target: T2, Histone deacetylase 8 (Homo sapiens); experiment: Inhibition of HDAC8 (unknown origin) assessed as Kinact using Boc-Lys(TFA)-AMC as substrate by fluorescence based method; conditions: not given

| K [s⁻¹] | SMILES |
| --- | --- |
| 0.005 | C#Cc1c[n+](C)ccc1NC(=O)CC(=O)N1Cc2ccccc2C1 |
| 0.003 | C#Cc1ccc[n+](C)c1 |

target: T2, Histone deacetylase 8 (Homo sapiens); experiment: Inhibition of HDAC8 in human OCI-AML3 cells assessed as increase in SMC3 acetylation at 20 to 40 uM incubated for 72 hrs by Western blotting analysis; type: cell-based; conditions: OCI-AML-3, dose 20-40 µM

| inhibition | SMILES |
| --- | --- |
| Active | C#Cc1ccc[n+](C)c1 |
